Experimental data from patent publication US10413545B2, “Imidazolin-5-one derivative useful as FASN inhibitors for the treatment of cancer” (Janssen Pharmaceutica NV, priority 2013, dated 2019).
Like-named read-outs stand apart in the source and are kept apart here.

Tests used:
Assay type in all cases: cell-based
A2780 ovarian cells = assay: A2780 Ovarian Cell Proliferation Assay in Lipid Reduced Medium, with and without Palmitate (MTT); settings: Homo sapiens, 10% lipid-reduced serum, 96 h
Experimental: The biological assays described below correspond to comparative assays for ovarian cell proliferation.
2500 cells were seeded in a 96-well clear well plate in 200 μL RPM11640 with 10% Fetal Calf Serum (Hyclone), and incubated at 37° C., 5% CO2, Blanks were wells without cells. The next day the culture medium was aspirated and replaced by 160 μL culture medium with 10% Lipid-Reduced Serum (LRS, Hyclone). […] After 96 h incubation, an MTT assay was performed.
2500 cells were seeded in a 96-well clear well plate in 200 μL RPM11640 with 10% Fetal Calf Serum (Hyclone), and incubated at 37° C., 5% CO2. Blanks were wells without cells. The next day the culture medium was aspirated and replaced by 160 μL culture medium with 10% Lipid-Reduced Serum (LRS, Hyclone). 20 μL test compound (at concentrations of 30 μM, 10 μM, 3 μM, 1 μM, 0.30 μM, 0.10 μM, 0.03 μM and 0.01 μM)/DMSO dilution followed by 20 μL ethanol-BSA solution were added to a final concentrations of 0.2% DMSO, 0.2% fatty-acid-free BSA, 0.25% ethanol. After 96 h incubation an MTT assay was performed.
Raw data generated by the instrument were normalized to % Controlmin values, which were calculated as: % Controlmin=100*(x−mLC)/(mHC−mLC)
where mLC and mHC were the means of the low control wells and high control wells on the plate, after manual exclusion of outliers. A plot of Controlmin versus test compound concentration was fitted to a 4-parameter logistic curve using a non-linear least squares regression method.

[1] = system: PC-3M-Luc-C6 prostate cells; assay: In Vitro PC-3M-Luc-C6 Prostate Cell Proliferation Assay in Lipid Reduced Medium; settings: Prostate cell, read-out: pIC50 PC-3M-Luc-C6 prostate cell (converted); 10% lipid reduced serum, 96 h, ATP-glow luminescence
Experimental: PC-3M-Luc-C6 prostate cells were obtained from Xenogen Corporation. Cells were maintained in MEM supplemented with 10% Fetal Calf Serum (FCS, Hyclone), 2 mM glutamine, 1 mM sodium pyruvate, 1% BME vitamins (available from for example, Sigma Aldrich), 0.1 mM non Essential Amino Acid and 50 μg/ml Gentamicin. The cells were passaged twice a week.
(§1) The next day 10 μl test compound/DMSO diluted in medium was added (3E-5M, 1E-5M, 3E-6M,1E-6M, 3E-7M, 1E-7M, 3E-8M, 1E-8M final concentration). Compounds were tested in duplicate. After 96 h incubation at 37° C., 5% CO2 25 μl ATP-glow mix was added. The plate was incubated for 30 min at 37° C. and luminescence was measured with the Envision.
(§2) Analysis: Determination of pIC50 Values
(§3) pIC50 values were calculated as follows. Raw data generated by the instruments were normalized to % Controlmin values, which were calculated as: % Controlmin=100*(x−mLC)/(mHC−mLC),
(§4) where mLC and mHC are the means of the low control wells and high control wells on the plate, after manual exclusion of outliers. The relation between the % Controlmin values and concentration was fitted to a 4-parameter logistic curve using a non-linear least squares regression method to determine the pIC50 value. Outlying data points were excluded manually to get a correct fit. The pIC50 corresponds to −log 10(IC50), if the IC50 is expressed in molar units (http://www.ncbi.nlm.nih.qovibooks/NBK91994). The IC50 parameter was always determined by non-linear regression, but one or more of the other parameters may have been held fixed on a relevant input value, such as 0 for the bottom values.

[2] = system: LNCaP_Vancouver prostate cells; assay: In Vitro LNCaP Vancouver Prostate Cell Proliferation Assay in Lipid Reduced Medium; settings: Prostate cell; 10% lipid reduced serum, 96 h, ATP-glow luminescence; read-out: pIC50 LNCaP_Vancouver prostate cell (converted)
Experimental: LNCaP_Vancouver prostate cells were obtained from the Vancouver Prostate Cancer Centre.
as §1, with “10 μl of test compound/DMSO” for “10 μl test compound/DMSO”
as §2, §3, §4

[3] = 25 μM palmitate added (control), read-out: pIC50 With Palmitate (converted)
[4] = no palmitate, read-out: pIC50 Without Palmitate (converted)

IC50 (A2780 ovarian cells; [3]) [nM]	IC50 (A2780 ovarian cells; [4]) [nM]	IC50 [1] [nM]	IC50 [2] [nM]	Compound
> 10000	2000	~1860	4370	CC1(c2ccccc2)N=C(c2ccc(-c3ccc4occc4c3)cc2)N(C[C@@H]2CCN(C(=O)C3CC3)C2)C1=O (mixture of isomers) [Compound 5, (4RS)-2-(4-(Benzofuran-5-yl)phenyl)-1-(((R)-1-(cyclopropanecarbonyl)pyrrolidin-3-yl)methyl)-4-methyl-4-phenyl-1H-imidazol-5(4H)-one]
> 10000	363	501	1820	Cn1ncc2cc(-c3ccc(C4=NC(C)(c5ccccc5)C(=O)N4C[C@@H]4CCN(C(=O)C5CC5)C4)cc3)ccc21 (mixture of isomers) [Compound 6, (4RS)-1-(((R)-1-(cyclopropanecarbonyl)pyrrolidin-3-yl)methyl)-4-methyl-2-(4-(1-methyl-1H-indazol-5-yl)phenyl)-4-phenyl-1H-imidazol-5(4H)-one]
> 10000	132	74.1	234	CC1(c2ccccc2)N=C(c2ccc(-c3ccc4[nH]ccc4c3)cc2)N(C[C@@H]2CCN(C(=O)C3CC3)C2)C1=O (mixture of isomers) [Compound 7, (4RS)-2-(4-(1H-Indol-5-yl)phenyl)-1-(((R)-1-(cyclopropanecarbonyl)pyrrolidin-3-yl)methyl)-4-methyl-4-phenyl-1H-imidazol-5(4H)-one]
> 10000	1150	1290	2570	COCC1(C)N=C(c2ccc(-c3ccc4occc4c3)cc2)N(C[C@@H]2CCN(C(=O)C3CC3)C2)C1=O (mixture of isomers) [Compound 8, (4RS)-2-(4-(Benzofuran-5-yl)phenyl)-1-(((R)-1-(cyclopropanecarbonyl)pyrrolidin-3-yl)methyl)-4-(methoxymethyl)-4-methyl-1H-imidazol-5(4H)-one]
> 10000	~1910	1620	2040	CC1(C2CC2)N=C(c2ccc(-c3ccc4occc4c3)cc2)N(C[C@@H]2CCN(C(=O)C3CC3)C2)C1=O (mixture of isomers) [Compound 9, (4RS)-2-(4-(Benzofuran-5-yl)phenyl)-1-(((R)-1-(cyclopropanecarbonyl)pyrrolidin-3-yl)methyl)-4-cyclopropyl-4-methyl-1H-imidazol-5(4H)-one]
> 10000	~741	933	3630	COCC1(C)N=C(c2ccc(-c3ccc4c(cnn4C)c3)cc2)N(C[C@@H]2CCN(C(=O)C3CC3)C2)C1=O (mixture of isomers) [Compound 10, (4RS)-1-(((R)-1-(cyclopropanecarbonyl)pyrrolidin-3-yl)methyl)-4-(methoxymethyl)-4-methyl-2-(4-(1-methyl-1H-indazol-5-yl)phenyl)-1H-imidazol-5(4H)-one]
> 10000	3720	~2000	~10000	CC1(C)N=C(c2ccc(-c3nc4ccccc4o3)cc2)N(C[C@@H]2CCN(C(=O)C3CC3)C2)C1=O [Compound 11, (R)-2-(4-(benzo[d]oxazol-2-yl)phenyl)-1-((1-(cyclopropanecarbonyl)pyrrolidin-3-yl)methyl)-4,4-dimethyl-1H-imidazol-5(4H)-one]
> 10000	178	158	759	CC1(C)N=C(c2ccc(-c3ccc(-c4ccncc4)cc3)cc2)N(C[C@@H]2CCN(C(=O)C3CC3)C2)C1=O [Compound 15, (R)-1-((1-(cyclopropanecarbonyl)pyrrolidin-3-1)methyl)-4,4-dimethyl-2-(4′-(pyridin-4-yl)-[1,1′-biphenyl]-4-yl)-1H-imidazol-5(4H)-one]
> 10000	186	174	331	Cn1cc(-c2ccc(-c3ccc(C4=NC(C)(C)C(=O)N4C[C@@H]4CCN(C(=O)C5CC5)C4)cc3)cc2)cn1 [Compound 16, (R)-1-((1-(cyclopropanecarbonyl)pyrrolidin-3-yl)methyl)-4,4-dimethyl-2-(4′-(1-methyl-1H-pyrazol-4-yl)-[1,1′-biphenyl]-4-yl)-1H-imidazol-5(4H)-one]
